# Measurements taken from patent US20080319175A1, “Transthyretin Stabilization” (The Scripps Research Institute, priority 2004, published 2008).
# Key:
# [1] = precipitation of small molecule under acid-mediated amyloidogenic conditions in the absence of TTR; type: physicochemical; conditions: 3.6 μM, pH 4.4, 37° C., 72 h
# Description: TTR amyloid inhibition efficacy was probed using a stagnant fibril formation assay described previously, wherein partial denaturation was triggered by acidification (pH 4.4, 37° C.) (Colon, W.; Kelly, J. W. Biochemistry 1992, 31, 8654-8660). Briefly, a test compound (7.2 or 3.6 μM) is incubated with TTR (3.6 μM) for 30 min in pH 7 buffer. Amyloidogenesis is then initiated by lowering to pH 4.4, where maximal fibril formation is observed with WT-TTR after 72 h (37° C.). The turbidity in the presence of a potential inhibitor (Ttest) is compared to that of a solution lacking a test compound (Tcontrol). […] From experience we know that excellent inhibitors allow <10% fibril formation at a small molecule concentration of 7.2 μM and <40% fibril formation at a concentration equal to that of WT-TTR (3.6 μM) (Hammarstrom, P.; et al. Science 2003, 299, 713-716; Klabunde, T.; et al. Nature Struct. Biol. 2000, 7, 312-321; Razavi, H.; et al. Angew Chem 2003, 42, 2758-2761; Miroy, G. J.; et al. Proc. Natl. Acad. Sci. USA 1996, 93, 15051-15056; Peterson, S. A.; et al. Proc. Natl. Acad. Sci. USA 1998, 95, 12956-12960; Baures, P. W.; et al. Bioorg. Med. Chem. 1998, 6, 1389-1401; Baures, P. W.; et al. Bioorg. Med. Chem. 1999, 7, 1339-1347; Petrassi, H. M.; et al. J. Am. Chem. Soc. 2000, 122, 2178-2192; McCammon, M. G.; et al. Structure 2002, 10, 851-863; Oza, V. B.; et al. J. Med. Chem. 2002, 45, 321-332; Sacchettini, J. C.; et al. Nature Rev. Drug Disc. 2002, 1, 267-275; Green, N. S.; et al. J. Am. Chem. Soc. 2003, 125, 13404-13414; Adamski-Werner, S. L.; et al. J. Med. Chem. 2004, 47, 355-374; Miller Sean, R.; et al. Lab. Inv. 2004, 84, 545-552). […] Therefore, when both the ligand and TTR are at equal concentrations, a population of TTR•I, TTR•I2 and unliganded TTR is observed, dictated by the dissociation constants. It is now established by other studies that inhibitor occupancy of only one of the two TTR binding sites is sufficient to stabilize the entire tetramer against amyloidogenesis (Wiseman, R. L.; et al. J. Am. Chem. Soc. 2005, in press). This is further supported by the observation herein that twenty-six of these dibenzofurans are excellent TTR amyloidogenesis inhibitors (<40% fibril formation) at a concentration equal to that of TTR (3.6 μM each, FIG. 3).
# [2] = molecular target: T1, WT-TTR (Homo sapiens, UniProt P02766); test: time course analysis of WT-TTR fibril formation inhibition (turbidity at 500 nm); type: biochemical; conditions: WT-TTR 3.6 μM; for TTR amyloidogenesis mediated by partial acidification relative to control: inhibitor 7.2 and 3.6 μM, pH 4.4
# T1 construct: made in house
# From the text: (§1) The ability of these inhibitors to impose kinetic stability on tetrameric TTR is best evaluated by assessing the rate of TTR tetramer dissociation (Hammarstrom, P.; et al. Science 2003, 299, 713-716; Hammarstrom, P.; et al. Proc. Natl. Acad. Sci. USA 2002, 99, 16427-16432). Under acidic conditions tetramer dissociation leads to amyloidogenesis, whereas in the presence of chaotropes (6M urea), tetramer dissociation leads to monomer unfolding. The influence of inhibitors 25, 47 and 64, representing the three structural classes of dibenzofuran-based inhibitors, on the rates of tetramer dissociation under acid- and urea-mediated denaturing conditions was probed. […] The rate of TTR tetramer dissociation in 6M urea is easily monitored by linking the slow quaternary structural changes to rapid tertiary structural changes that are easily monitored by spectroscopic methods (Hammarstrom, P.; et al. Proc. Natl. Acad. Sci. USA 2002, 99, 16427-16432).
# Time course analysis of WT-TTR fibril formation inhibition by compounds 25, 47, and 64. Compounds 25, 47, and 64 were dissolved in DMSO to provide 7.2 mM primary stock solutions (10× stocks), from which 5- and 10-fold DMSO dilutions yielded 1.44 mM (2×) and 0.72 mM (1×) secondary stock solutions, respectively. 495 μL of 0.4 mg/mL (7.2 μM) WT-TTR solution (10 mM sodium phosphate, 100 mM KCl, and 1 mM EDTA, pH 7.2), and 5 μL of either the 1.44 or 0.72 mM inhibitor secondary stock solutions were added to disposable UV cuvettes, vortexed briefly, then incubated for 30 min at 25° C. The pH was then adjusted to 4.4 with addition of 500 μL of acidic buffer (100 mM acetate, 100 mM KCl, 1 mM EDTA, pH 4.2), and the final 1 mL solutions were vortexed again and incubated in the dark at 37° C. without agitation. At 0, 4, 8, 12, 25, 49, 74, 100, 122, 145, and 169 h time points after acidification, the solutions were vortexed and the turbidity at 500 nm was measured. Control samples containing 5 μL of pure DMSO were prepared and analyzed as above for comparison. Small molecule and TTR control samples were prepared in groups of 10 to prevent disturbance of the cuvettes during incubation. Samples were discarded after their turbidities were measured.
# FIG. 10 is a plot of the timecourse analysis of WT-TTR (3.6 μM) fibril formation mediated by partial acid denaturation in the absence (▴) and presence of 7.2 μM (⋄) and 3.6 μM (∘) inhibitors 25, 47, and 64, as measured by turbidity at 500 nm (see color scheme within Figure to differentiate inhibitors). It is hard to discern which compound is most efficacious in the black and white plot.
# [3] = molecular target: T1, WT-TTR; test: time course analysis of WT-TTR tetramer dissociation in urea (far-UV CD); type: biochemical; conditions: for rate of TTR tetramer dissociation monitored by far-UV CD: 6M urea, TTR 3.6 μM, inhibitor 7.2 and 3.6 μM; for rank in tetramer dissociation time course at the end of the plot: after 169 hours, 6.0 M urea, WT-TTR 3.6 μM
# From the text: as §1
# Time course analysis of WT-TTR tetramer dissociation inhibition by compounds 25, 47, and 64 evaluated by linked-monomer unfolding in urea. Compounds 25, 47, and 64 were dissolved in DMSO to provide 10 mM primary stock solutions, from which 10-fold EtOH dilutions yielded 1 mM secondary stock solutions. 200 μL of 1.0 mg/mL (18 μM) WT-TTR solution (50 mM sodium phosphate, 100 mM KCl, and 1 mM EDTA, pH 7.2), and either 7.2 or 3.6 μL (2× and 1×, respectively) of 1 mM inhibitor secondary stock solutions were added to 2 mL eppendorf tubes, vortexed briefly, and incubated for 15 min at 25° C. 100 μL of the TTR•inhibitor solutions were added to 900 μL of urea buffer (6.67 M urea, 50 mM sodium phosphate, 100 mM KCl, 1 mM EDTA, pH 7.2), and the final 1 mL solutions were vortexed again and incubated in the dark at 25° C. without agitation. At 0, 4, 11, 24, 49, 73, 97, 122, 146, and 170 h time points after mixing with urea, the circular dichroism spectra were measured between […], with scanning every 0.5 nm and averaging for 5 s. After measurements were taken, samples were returned to their respective eppendorf tubes and incubation was continued. Control samples containing 7.2 μL of 10% DMSO in EtOH were prepared and analyzed as above for comparison. The CD amplitude values were averaged between 215 and 218 nm to determine the extent of β-sheet loss throughout the experiment. TTR tetramer dissociation is linked to the rapid (˜500,000× faster) monomer denaturation as measured through this β-sheet loss (Hammarstrom, P.; et al. Proc. Natl. Acad. Sci. USA 2002, 99, 16427-16432).
# FIG. 11 is a plot of the timecourse analysis of WT-TTR (3.6 μM) tetramer dissociation (6.0 M urea) in the absence (▴) and presence of 7.2 μM (⋄) and 3.6 μM (∘) concentrations of inhibitors 25, 47, and 64 (see color scheme within Figure to differentiate inhibitors). Slow tetramer dissociation is not detectable by far-UV CD spectroscopy, but this process is linked to rapid (˜500,000× faster) monomer denaturation as monitored by loss of β-sheet content easily followed by circular dichroism spectroscopy. It is hard to discern which compound is most efficacious in the black and white plot.
SMILES,precipitation of compound in the absence of TTR [1],TTR amyloidogenesis mediated by partial acidification relative to control [2],rate of TTR tetramer dissociation monitored by far-UV CD [3],rank in tetramer dissociation time course at the end of the plot [3],"rank by fibrils formed at the end of the time course ([2]; after 169 hours, partial acid denaturation)"
O=C(O)c1cccc2c1oc1c(C(=O)O)ccc(Nc3ccccc3C(F)(F)F)c12 [Compound 25],no measurable precipitation,dramatically slowed in a dose-dependent fashion,markedly slowed in a dose-dependent fashion,most effective in dissociating tetramers,
O=C(O)c1cccc2c1oc1c(C(=O)O)ccc(-c3cc(C(F)(F)F)cc(C(F)(F)F)c3)c12 [Compound 64],,dramatically slowed in a dose-dependent fashion,markedly slowed in a dose-dependent fashion,followed by compound 64,
O=C(O)c1cccc2c1oc1c(C(=O)O)ccc(Oc3cc(Cl)cc(Cl)c3)c12 [Compound 47],no measurable precipitation,dramatically slowed in a dose-dependent fashion,markedly slowed in a dose-dependent fashion,,shows the most fibrils formed
